# Laboratory results as given in paper PMC11320730, “5-Methoxy-2-aminoindane Reverses Diet-Induced Obesity and Improves Metabolic Parameters in Mice: A Potential New Class of Antiobesity Therapeutics” (ACS Pharmacology & Translational Science, 2024).
# Columns and labels:
# [1] = molecular target: 5-HT1A receptor; parameters: method as in PMID 30904940; details: cited from earlier work
# [2] = test system: C57Bl/6 mice; assay: Acute effect of MEAI on wheel running and locomotor activity; format: in vivo; details: lean male mice, vs vehicle
# Procedure: Male 6-week-old C57Bl/6 mice (Harlan, Israel) were maintained in standard conditions under a 12 h light/dark cycle and fed ad libitum. A total of 32 animals were divided into four experimental groups (N = 8 mice per group) receiving single doses of 40, 60, or 100 mg/kg of MEAI or vehicle (sterile water), which was administered via oral gavage 2 h prior to the dark phase. The animals were monitored for 48 h postdose for drug tolerability, food and water intakes, and activity and metabolic parameters. At the end of the experiment, the animals were euthanized, and tissues (brain, liver, fat, and kidney) and blood were collected and stored in a frozen state for future analyses.
# The activity energy expenditure was calculated based on eq 7: [drawing 7] 7
# The assessment of wheel running and locomotor activity was performed by using the Promethion High-Definition Behavioral Phenotyping System (Sable Instruments, Inc., Las Vegas, Nevada, USA). Wheel revolutions were measured with a monitor that recorded voluntary wheel running activity, and locomotor activity was quantified using disruptions of infrared XYZ beam arrays with a beam spacing of 0.25 cm. Pedestrian locomotion represented the sum of all directed ambulatory locomotion within the beam break system, using a speed cutoff of 1 cm/s. Total distance represented the sum of all distances traveled within the beam break system, not including any distance run on the wheel in meters (m); this included fine movements (such as grooming and scratching).
# [3] = test system: vesicular monoamine transporter (VMAT); parameters: method as in PMID 29458138; details: cited from earlier work
# [4] = test system: dopamine transporter (DAT); parameters: method as in PMID 30904940; details: cited from earlier work
# [5] = test system: DIO C57BL/6 mice; assay: Multiparameter metabolic assessment in DIO mice; format: in vivo
# Procedure: (§1) Male C57BL/6 mice were used to establish DIO by feeding them a high-fat diet (HFD; 60% cal/L fat, 20% cal/L protein, and 20% cal/L carbohydrates; Research Diet, D12492) for 18 weeks. After this period, mice were treated with either vehicle (sterile water, N = 8) or MEAI (N = 11) daily for 28 days by gavage at a dose of 40 mg/kg/day. Age-matched control mice (N = 10) on a standard diet (STD; 14% kcal fat, 24% kcal protein, 62% kcal carbohydrates; NIH-31 rodent diet) received vehicle daily. The body weight of all mice was monitored daily, and total body fat and lean mass were determined by EchoMRI-100H (Echo Medical Systems LLC, Houston, Texas, USA). On day 29, at the end of the experimental period, mice were euthanized by a cervical dislocation under anesthesia. The kidneys, brain, liver, and fat pads were removed and weighed, and samples were either snap-frozen or fixed in buffered 4% formalin. Trunk blood was collected to determine the biochemical parameters.
# The metabolic profiles and food and water intakes of the mice were assessed using the Promethion High-Definition Behavioral Phenotyping System (Sable Instruments, Inc., Las Vegas, Nevada, USA). MetaScreen software version 2.2.18.0 was used for data acquisition and instrument control. Raw data were processed using ExpeData version 1.8.4 with an analysis script detailing all aspects of the data transformation. Mice with free access to food and water, housed at temperatures of (22–23 °C), were subjected to a standard 12 h light/12 h dark cycle, which consisted of a 48 h acclimation period followed by 24 h of sampling after dosing. Respiratory gases were measured using the GA-3 gas analyzer (Sable Systems, Inc., Las Vegas, Nevada, USA) employing a pull-mode negative-pressure system. Airflow was measured and controlled by an FR-8 instrument (Sable Systems, Inc., Las Vegas, Nevada, USA) at a flow rate of 2000 mL/min. Water vapor was continuously measured, and its dilution effect on O2 and CO2 was mathematically compensated. Respiratory exchange rate (RER) was calculated as the ratio of CO2 produced (VCO2) to O2 consumed (VO2) using eq 1): [drawing 1] 1
# Total energy expenditure (TEE) was calculated using VO2 and RER, according to eq 2: [drawing 2] 2
# Fat oxidation (FO) and carbohydrate oxidation (CHO) were calculated using VO2 and VCO2 based on eqs 3 and 4, respectively: [drawing 3] 3 [drawing 4] 4
# Energy balance and energy flux were derived from eqs 5 and 6: [drawing 5] 5 [drawing 6] 6
# The thermic effect of food for each animal was calculated based on its individual food intake in a period of 24 h according to the specific percentage of carbohydrates, fats, and proteins in the consumed diet.
# The basal energy expenditure was calculated based on the mean energy expenditure (EE) during the lowest EE in a 30 min period, in kilocalories per hour (kcal/h). This calculation represented the animal’s basal metabolic rate.
# [6] = test system: DIO C57BL/6 mice; assay: Effect of MEAI on obesity: body weight and body composition (EchoMRI) in DIO mice; format: in vivo; details: 28 days
# Procedure: as §1
# [7] = test system: hepatic lipid metabolism genes; assay: Real-time PCR of liver mRNA in DIO mice; format: in vivo; details: 40 mg/kg/day
# Procedure: as §1
# mRNA from livers was extracted using a Bio-Tri RNA lysis buffer (Bio-Lab, Israel), followed by DNase I treatment (Thermo Scientific, Illinois, USA), and reverse transcribed using the qScript cDNA Synthesis kit (Quantabio, Beverly, Massachusetts, USA). Real-time PCR was performed using an iTaq Universal SYBR Green Supermix (Bio-Rad, California, USA) and the CFX connect ST system (Bio-Rad, California, USA). The full list of primers is available as Table S1.
# [8] = single oral dose, all doses (40, 60, 100 mg/kg)
# [9] = DIO mice, 40 mg/kg/day, vs HFD vehicle
structure (smiles),measurement,setting,value
"COc1ccc2c(c1)CC(N)C2.Cl (centres unmarked) [MEAI, 2,3-Dihydro-5-methoxy-1H-inden-2-amine hydrochloride]",Ki,[1],2500 nM
same,pedestrian speed,[2]; single oral dose 60 mg/kg,significant increase
same,total number of beam breaks (ambulation and fine movements),"[2]; single oral dose 40, 60 or 100 mg/kg",minor alterations
same,directed voluntary activity (pedestrian locomotion),"[2]; single oral dose, 40 mg/kg and above",significant and dose-dependent increase
same,average distance traveled within the cage,[2]; [8],significant elevations
same,total distance traveled within the cage,[2]; [8],significant elevations
same,sum of voluntary wheel running activity,"[2]; single oral dose, any dose tested",did not significantly affect
same,activity-specific energy expenditure,[2]; single oral dose,modest insignificant rise
same,binding inhibition,[3],unaffected
same,interaction with transporter,[4],interacts
same,basal energy expenditure,"[5]; DIO mice, 40 mg/kg/day",significantly boosted
same,cumulative TEE,"[5]; DIO mice, 40 mg/kg/day",increases
same,water consumption,"[5]; DIO mice, 40 mg/kg/day",did not exert any significant influence
same,total food intake over 24 h,"[5]; DIO mice, 40 mg/kg/day, across all groups",similar
same,overall energy balance,"[5]; DIO mice, 40 mg/kg/day, across the groups",no significant changes
same,thermodynamic (thermic) effect of food,"[5]; DIO mice, 40 mg/kg/day, between groups",remained unchanged
same,RER,"[5]; DIO mice, 40 mg/kg/day, in comparison to STD vehicle group",slightly decreased
same,differences in TEE by ANCOVA using lean mass as covariant,"[5]; DIO mice, 40 mg/kg/day, p = 0.0097 vs HFD vehicle",treatment-dependent
same,average energy expenditure,"[5]; DIO mice, 40 mg/kg/day, vs HFD and STD vehicle, light and dark phases",significant increase
same,CHO levels,[5]; [9],no direct effect of the drug itself observed
same,carbon dioxide production,[5]; [9],slightly increased
same,oxygen consumption,[5]; [9],slightly increased
same,overall rate of FO,"[5]; DIO mice, 40 mg/kg/day, vs HFD- and STD-vehicle groups",increase
same,energy flux,"[5]; DIO mice, 40 mg/kg/day, vs vehicle groups",significant increase
same,meal size (food intake per meal),"[5]; HFD-fed mice regardless of MEAI treatment (40 mg/kg/day), vs STD",significant reduction
same,decrease in total body weight,"[6]; DIO mice, 40 mg/kg/day by gavage, compared to obese vehicle-treated group",~15%
same,adiposity associated with obesity,"[6]; DIO mice, 40 mg/kg/day",reduced
same,lean body mass ratio,"[6]; DIO mice, 40 mg/kg/day",maintaining
same,net lean mass,"[6]; DIO mice, 40 mg/kg/day",maintaining
same,overall fat mass,"[6]; DIO mice, 40 mg/kg/day",reducing
same,body weight,"[6]; HFD-fed (DIO) mice, 40 mg/kg/day by gavage",significantly reduced
same,7-dehydrocholesterol reductase (Dhcr) expression,[7],no significant changes
same,Acaca mRNA expression,[7],significantly decreased
same,Crebp expression,[7],did not affect
same,Dgat2 expression,[7],did not affect
same,Fabp1 mRNA expression,[7],significantly decreased
same,Fasn mRNA expression,[7],significantly decreased
same,G6pdx mRNA expression,[7],significantly decreased
same,Hmgcr expression,[7],no significant changes
same,LDL receptor (Lldr) expression,[7],no significant changes
same,Nr1h3 expression,[7],no significant changes
same,Pparg expression,[7],did not affect
same,Scd1 mRNA expression,[7],significantly decreased
same,Srebp1 expression,[7],did not affect
same,hormone-sensitive lipase (Hsl) mRNA expression,[7],no significant changes
same,Cd36 mRNA expression,[7]; p < 0.05,significantly downregulated
same,lipoprotein lipase (Lpl) mRNA level,[7]; p < 0.05,significant decrease
